System: KRAS-mutant PDC multicell tumor spheroid viability
Experiment: Anticancer human tumor 521955-158-R2-J5-PDC patient-derived pancreatic carcinoma cell line growth inhibition [KRAS2]
Conditions: for IC50: curve of first compound; for viability, T/C: stronger effect = lower value
Summary of the method: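 Combination screen of spheroid viability in tumor-cell co-cultures with endothelial (HUVEC) and mesenchymal stem cell stroma. Each agent was tested in half-log dilutions, topping at clinical Cmax or at 10 microM without a known Cmax.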

[1] = second compound 0.1 µM, first compound 0.0316 µM
[2] = second compound 0.316 µM, first compound 0.0316 µM
[3] = second compound 1 µM, first compound 0.0316 µM
[4] = second compound 3.16 µM, first compound 0.0316 µM
[5] = second compound 10 µM, first compound 0.0316 µM
[6] = second compound 0.1 µM, first compound 0.1 µM
[7] = second compound 0.1 µM, first compound 0.316 µM
[8] = second compound 0.1 µM, first compound 1 µM
[9] = second compound 0.1 µM, first compound 3.16 µM
[10] = second compound 0.1 µM, first compound 10 µM
[11] = second compound 0.316 µM, first compound 0.1 µM
[12] = second compound 0.316 µM, first compound 0.316 µM
[13] = second compound 0.316 µM, first compound 1 µM
[14] = second compound 0.316 µM, first compound 3.16 µM
[15] = second compound 0.316 µM, first compound 10 µM
[16] = second compound 1 µM, first compound 0.1 µM
[17] = second compound 1 µM, first compound 0.316 µM
[18] = second compound 1 µM, first compound 1 µM
[19] = second compound 1 µM, first compound 3.16 µM
[20] = second compound 1 µM, first compound 10 µM
[21] = second compound 3.16 µM, first compound 0.1 µM
[22] = second compound 3.16 µM, first compound 0.316 µM
[23] = second compound 3.16 µM, first compound 1 µM
[24] = second compound 3.16 µM, first compound 3.16 µM
[25] = second compound 3.16 µM, first compound 10 µM
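Further: viability read after seven days of drug exposure.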

CC(=O)Nc1cccc(-n2c(=O)n(C3CC3)c(=O)c3c(Nc4ccc(I)cc4F)n(C)c(=O)c(C)c32)c1 + CNCc1ccccc1-c1csc(C(C)Nc2nc(C)nc3cc(OC)c(OC)cc23)c1
IC50 (second compound 0.1 µM): 0.252 nM
IC50 (second compound 0.316 µM): 0.285 nM
IC50 (second compound 1 µM): 0.312 nM
IC50 (second compound 3.16 µM): < 0.1 nM
IC50 (second compound 10 µM): < 0.1 nM
viability, T/C (second compound 0.1 µM, first compound 0.0001 µM): 70.5%
viability, T/C (second compound 0.1 µM, first compound 0.000316 µM): 44.9%
viability, T/C (second compound 0.1 µM, first compound 0.001 µM): 28.5%
viability, T/C (second compound 0.1 µM, first compound 0.00316 µM): 27.1%
viability, T/C (second compound 0.1 µM, first compound 0.01 µM): 20.9%
viability, T/C [1]: 15.9%
viability, T/C (second compound 0.316 µM, first compound 0.0001 µM): 69%
viability, T/C (second compound 0.316 µM, first compound 0.000316 µM): 43.6%
viability, T/C (second compound 0.316 µM, first compound 0.001 µM): 38%
viability, T/C (second compound 0.316 µM, first compound 0.00316 µM): 26.3%
viability, T/C (second compound 0.316 µM, first compound 0.01 µM): 22.2%
viability, T/C [2]: 14.1%
viability, T/C (second compound 1 µM, first compound 0.0001 µM): 81.5%
viability, T/C (second compound 1 µM, first compound 0.000316 µM): 39.6%
viability, T/C (second compound 1 µM, first compound 0.001 µM): 35.7%
viability, T/C (second compound 1 µM, first compound 0.00316 µM): 24.5%
viability, T/C (second compound 1 µM, first compound 0.01 µM): 7.75%
viability, T/C [3]: 2.12%
viability, T/C (second compound 3.16 µM, first compound 0.0001 µM): 1.11%
viability, T/C (second compound 3.16 µM, first compound 0.000316 µM): 0.2%
viability, T/C (second compound 3.16 µM, first compound 0.001 µM): 1.26%
viability, T/C (second compound 3.16 µM, first compound 0.00316 µM): 0.11%
viability, T/C (second compound 3.16 µM, first compound 0.01 µM): 0.95%
viability, T/C [4]: 0.19%
viability, T/C (second compound 10 µM, first compound 0.0001 µM): 0.21%
viability, T/C (second compound 10 µM, first compound 0.000316 µM): 0.24%
viability, T/C (second compound 10 µM, first compound 0.001 µM): 0.18%
viability, T/C (second compound 10 µM, first compound 0.00316 µM): 0.4%
viability, T/C (second compound 10 µM, first compound 0.01 µM): 2.28%
viability, T/C [5]: 0.26%

Cn1nccc1Nc1nccc(-c2cc3c(s2)C(C)(C)N(CCN2CCOCC2)C3=O)n1 + CC1OCC2(CCN(c3cnc(Sc4ccnc(N)c4Cl)c(N)n3)CC2)C1N
IC50 (second compound 0.1 µM): 493 nM
IC50 (second compound 0.316 µM): 485 nM
IC50 (second compound 1 µM): 490 nM
IC50 (second compound 3.16 µM): 602 nM
IC50 (second compound 10 µM): 427 nM
viability, T/C [1]: 94.1%
viability, T/C [6]: 70.9%
viability, T/C [7]: 58.5%
viability, T/C [8]: 41.5%
viability, T/C [9]: 25%
viability, T/C [10]: 19.6%
viability, T/C [2]: 69.9%
viability, T/C [11]: 62.1%
viability, T/C [12]: 58.4%
viability, T/C [13]: 38.5%
viability, T/C [14]: 25.4%
viability, T/C [15]: 15.6%
viability, T/C [3]: 73.6%
viability, T/C [16]: 66.9%
viability, T/C [17]: 57.5%
viability, T/C [18]: 38.7%
viability, T/C [19]: 24.7%
viability, T/C [20]: 15.9%
viability, T/C [4]: 71.4%
viability, T/C [21]: 63.1%
viability, T/C [22]: 63%
viability, T/C [23]: 40.4%
viability, T/C [24]: 23.3%
viability, T/C [25]: 18.4%
viability, T/C [5]: 50.9%
viability, T/C (second compound 10 µM, first compound 0.1 µM): 56%
viability, T/C (second compound 10 µM, first compound 0.316 µM): 57.9%
viability, T/C (second compound 10 µM, first compound 1 µM): 36%
viability, T/C (second compound 10 µM, first compound 3.16 µM): 27.3%
viability, T/C (second compound 10 µM, first compound 10 µM): 18.2%

COc1cc2nccc(Oc3ccc(NC(=O)C4(C(=O)Nc5ccc(F)cc5)CC4)cc3)c2cc1OC + C=CC(=O)N1CCN(c2nc(OCC3CCCN3C)nc3c2CCN(c2cccc4cccc(C)c24)C3)CC1CC#N
IC50 (second compound 0.0316 µM): 8200 nM
IC50 (second compound 0.1 µM): 7660 nM
IC50 (second compound 0.316 µM): 6600 nM
IC50 (second compound 1 µM): 2680 nM
IC50 (second compound 3.16 µM): < 31.6 nM
viability, T/C (second compound 0.0316 µM, first compound 0.0316 µM): 111%
viability, T/C (second compound 0.0316 µM, first compound 0.1 µM): 112%
viability, T/C (second compound 0.0316 µM, first compound 0.316 µM): 126%
viability, T/C (second compound 0.0316 µM, first compound 1 µM): 124%
viability, T/C (second compound 0.0316 µM, first compound 3.16 µM): 94.6%
viability, T/C (second compound 0.0316 µM, first compound 10 µM): 40.7%
viability, T/C [1]: 105%
viability, T/C [6]: 108%
viability, T/C [7]: 118%
viability, T/C [8]: 116%
viability, T/C [9]: 94.1%
viability, T/C [10]: 36.7%
viability, T/C [2]: 89.9%
viability, T/C [11]: 113%
viability, T/C [12]: 108%
viability, T/C [13]: 97.9%
viability, T/C [14]: 82.7%
viability, T/C [15]: 31.7%
viability, T/C [3]: 86.2%
viability, T/C [16]: 95%
viability, T/C [17]: 89.7%
viability, T/C [18]: 81.9%
viability, T/C [19]: 44.7%
viability, T/C [20]: 14.9%
viability, T/C [4]: 19.4%
viability, T/C [21]: 26.7%
viability, T/C [22]: 17.7%
viability, T/C [23]: 4.13%
viability, T/C [24]: 0.96%
viability, T/C [25]: 0.26%

Source: PubChem BioAssay AID1963871 (Molecular Pharmacology Branch, DTP, NCI, 2024)
